Test results published in patent US20230085307A1, “PYRIDAZINONE COMPOUND AND HERBICIDE” (NISSAN CHEMICAL CORPORATION, priority 2019, published 2023).

What follows are molecules tested on lambsquarters (assay: Test Example 5: herbicidal effect by foliage application, plastic box (Table 20, symbol O)). Conditions: 320 g/ha, foliage application after 14-day growth, evaluated three weeks after application.
Assay type: in vivo, lambsquarters (Chenopodium album)
Method in brief: (§1)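 Post-emergence foliar test in sterilized diluvial soil. Compound applied as water-diluted emulsion at a predetermined rate to 14-day-old plants; evaluation at three weeks.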
`C#CCOc1c(C)nn(C)c(=O)c1-c1c(-c2ccccc2OC)sc2cc(OC)ccc12` [3-154] was tested, and the “herbicidal effect on O: lambsquarters (evaluation grade 0-5)” value was 3 (Herbicidal rate of 40% or more and less than 70%).

Same assay, conditions: foliage application, 320 g/ha, three weeks after application
With `COc1ccccc1-c1sc2ccc(F)cc2c1-c1c(O)c(C)nn(Cc2ccccc2)c1=O` [2-438] the “O: lambsquarters, herbicidal effect grade” value was 0 (Herbicidal rate of 5% or less (almost no effect)).

What follows are molecules tested on chickweed (assay: Test Example 5: herbicidal effect by foliage application, plastic box (Table 20, symbol P)). Conditions: 320 g/ha, foliage application after 14-day growth, evaluated three weeks after application.
Assay type: in vivo, common chickweed (Stellaria media)
Method in brief: as §1
`C#CCOc1c(C)nn(C)c(=O)c1-c1c(-c2ccccc2OC)sc2cc(OC)ccc12` [3-154] was tested, and the “herbicidal effect on P: chickweed (evaluation grade 0-5)” value was 5 (Herbicidal rate of 90% or more (almost completely withered)).

Same assay, conditions: foliage application, 320 g/ha, three weeks after application
With `COc1ccccc1-c1sc2ccc(F)cc2c1-c1c(O)c(C)nn(Cc2ccccc2)c1=O` [2-438] the “P: chickweed, herbicidal effect grade” value was 0 (Herbicidal rate of 5% or less (almost no effect)).

Each molecule was assayed on Chinese sprangletop (assay: Test Example 3: herbicidal effect by foliage application, Wagner pot (Table 18, symbol D)). Conditions: 320 g/ha.
Assay type: in vivo, chinese sprangletop (Leptochloa chinensis)
Method in brief: (§2)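 Plants were sown in alluvial soil held under 0.1–0.5 cm standing water and grown 14 days in a greenhouse at 25–30 °C. An emulsifiable formulation, water-diluted to the set dose, was then sprayed onto the foliage, and effects were scored three weeks later using previously defined criteria.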
`C#CCOc1c(C)nn(C)c(=O)c1-c1c(-c2ccccc2OC)sc2cc(OC)ccc12` [3-154] was tested, and the “herbicidal effect on Chinese sprangletop (D)” value was 2 (Herbicidal rate of 20% or more and less than 40%).

Same assay, conditions: amount of applied herbicide 320 g/ha
`COc1ccccc1-c1sc2ccc(F)cc2c1-c1c(O)c(C)nn(Cc2ccccc2)c1=O` [2-438] was tested, and the “herbicidal effect on D: Chinese sprangletop” value was 0 (Herbicidal rate of 5% or less (almost no effect)).

The molecules below were run on blackgrass (assay: Test Example 5: herbicidal effect by foliage application, plastic box (Table 20, symbol J)). Conditions: 320 g/ha, foliage application after 14-day growth, evaluated three weeks after application.
Assay type: in vivo, blackgrass (Alopecurus myosuroides)
Method in brief: as §1
In the case of `C#CCOc1c(C)nn(C)c(=O)c1-c1c(-c2ccccc2OC)sc2cc(OC)ccc12` [3-154], the “herbicidal effect on J: blackgrass (evaluation grade 0-5)” value is reported as 0 (Herbicidal rate of 5% or less (almost no effect)).

Same assay, conditions: foliage application, 320 g/ha, three weeks after application
`COc1ccccc1-c1sc2ccc(F)cc2c1-c1c(O)c(C)nn(Cc2ccccc2)c1=O` [2-438] was tested, and the “J: blackgrass, herbicidal effect grade” value was 0 (Herbicidal rate of 5% or less (almost no effect)).

The molecules below were run on southern crabgrass (assay: Test Example 5: herbicidal effect by foliage application, plastic box (Table 20, symbol F)). Conditions: 320 g/ha, foliage application after 14-day growth, evaluated three weeks after application.
Assay type: in vivo, southern crabgrass (Digitaria ciliaris)
Method in brief: as §1
In the case of `C#CCOc1c(C)nn(C)c(=O)c1-c1c(-c2ccccc2OC)sc2cc(OC)ccc12` [3-154], the “herbicidal effect on F: southern crabgrass (evaluation grade 0-5)” value is reported as 0 (Herbicidal rate of 5% or less (almost no effect)).

Same assay, conditions: foliage application, 320 g/ha, three weeks after application
For `COc1ccccc1-c1sc2ccc(F)cc2c1-c1c(O)c(C)nn(Cc2ccccc2)c1=O` [2-438], the “F: southern crabgrass, herbicidal effect grade” value was 0 (Herbicidal rate of 5% or less (almost no effect)).

The molecules below were run on wild oat (assay: Test Example 5: herbicidal effect by foliage application, plastic box (Table 20, symbol I)). Conditions: 320 g/ha, foliage application after 14-day growth, evaluated three weeks after application.
Assay type: in vivo, wild oat (Avena fatua)
Method in brief: as §1
In the case of `C#CCOc1c(C)nn(C)c(=O)c1-c1c(-c2ccccc2OC)sc2cc(OC)ccc12` [3-154], the “herbicidal effect on I: wild oat (evaluation grade 0-5)” value is reported as 0 (Herbicidal rate of 5% or less (almost no effect)).

Same assay, conditions: foliage application, 320 g/ha, three weeks after application
In the case of `COc1ccccc1-c1sc2ccc(F)cc2c1-c1c(O)c(C)nn(Cc2ccccc2)c1=O` [2-438], the “I: wild oat, herbicidal effect grade” value is reported as 0 (Herbicidal rate of 5% or less (almost no effect)).

Each molecule was assayed on Italian ryegrass (assay: Test Example 5: herbicidal effect by foliage application, plastic box (Table 20, symbol K)). Conditions: 320 g/ha, foliage application after 14-day growth, evaluated three weeks after application.
Assay type: in vivo, Italian ryegrass (Lolium multiflorum)
Method in brief: as §1
For `C#CCOc1c(C)nn(C)c(=O)c1-c1c(-c2ccccc2OC)sc2cc(OC)ccc12` [3-154], the “herbicidal effect on K: Italian ryegrass (evaluation grade 0-5)” value was 0 (Herbicidal rate of 5% or less (almost no effect)).

Same assay, conditions: foliage application, 320 g/ha, three weeks after application
`COc1ccccc1-c1sc2ccc(F)cc2c1-c1c(O)c(C)nn(Cc2ccccc2)c1=O` [2-438] was tested, and the “K: Italian ryegrass, herbicidal effect grade” value was 0 (Herbicidal rate of 5% or less (almost no effect)).

What follows are molecules tested on barnyard grass (assay: Test Example 5: herbicidal effect by foliage application, plastic box (Table 20, symbol H)). Conditions: 320 g/ha, foliage application after 14-day growth, evaluated three weeks after application.
Assay type: in vivo, barnyard grass (Echinochloa crus-galli)
Method in brief: as §1
In the case of `C#CCOc1c(C)nn(C)c(=O)c1-c1c(-c2ccccc2OC)sc2cc(OC)ccc12` [3-154], the “herbicidal effect on H: barnyard grass (evaluation grade 0-5)” value is reported as 3 (Herbicidal rate of 40% or more and less than 70%).

Same assay, conditions: foliage application, 320 g/ha, three weeks after application
With `COc1ccccc1-c1sc2ccc(F)cc2c1-c1c(O)c(C)nn(Cc2ccccc2)c1=O` [2-438] the “H: barnyard grass, herbicidal effect grade” value was 0 (Herbicidal rate of 5% or less (almost no effect)).

Each molecule was assayed on persian speedwell (assay: Test Example 5: herbicidal effect by foliage application, plastic box (Table 20, symbol R)). Conditions: 320 g/ha, foliage application after 14-day growth, evaluated three weeks after application.
Assay type: in vivo, Persian speedwell (Veronica persica)
Method in brief: as §1
For `C#CCOc1c(C)nn(C)c(=O)c1-c1c(-c2ccccc2OC)sc2cc(OC)ccc12` [3-154], the “herbicidal effect on R: persian speedwell (evaluation grade 0-5)” value was 3 (Herbicidal rate of 40% or more and less than 70%).

Same assay, conditions: foliage application, 320 g/ha, three weeks after application
`COc1ccccc1-c1sc2ccc(F)cc2c1-c1c(O)c(C)nn(Cc2ccccc2)c1=O` [2-438] was tested, and the “R: persian speedwell, herbicidal effect grade” value was 0 (Herbicidal rate of 5% or less (almost no effect)).

These molecules were tested on velvetleaf (assay: Test Example 5: herbicidal effect by foliage application, plastic box (Table 20, symbol M)). Conditions: 320 g/ha, foliage application after 14-day growth, evaluated three weeks after application.
Assay type: in vivo, velvetleaf (Abutilon theophrasti)
Method in brief: as §1
With `C#CCOc1c(C)nn(C)c(=O)c1-c1c(-c2ccccc2OC)sc2cc(OC)ccc12` [3-154] the “herbicidal effect on M: velvetleaf (evaluation grade 0-5)” value was 0 (Herbicidal rate of 5% or less (almost no effect)).

Same assay, conditions: foliage application, 320 g/ha, three weeks after application
For `COc1ccccc1-c1sc2ccc(F)cc2c1-c1c(O)c(C)nn(Cc2ccccc2)c1=O` [2-438], the “M: velvetleaf, herbicidal effect grade” value was 0 (Herbicidal rate of 5% or less (almost no effect)).

Each molecule was assayed on barnyard grass (assay: Test Example 3: herbicidal effect by foliage application, Wagner pot (Table 18, symbol H)). Conditions: 320 g/ha.
Assay type: in vivo, barnyard grass (Echinochloa crus-galli)
Method in brief: as §2
With `C#CCOc1c(C)nn(C)c(=O)c1-c1c(-c2ccccc2OC)sc2cc(OC)ccc12` [3-154] the “herbicidal effect on barnyard grass (H)” value was 3 (Herbicidal rate of 40% or more and less than 70%).

Same assay, conditions: amount of applied herbicide 320 g/ha
In the case of `COc1ccccc1-c1sc2ccc(F)cc2c1-c1c(O)c(C)nn(Cc2ccccc2)c1=O` [2-438], the “herbicidal effect on H: barnyard grass” value is reported as 2 (Herbicidal rate of 20% or more and less than 40%).

Each molecule was assayed on windgrass (assay: Test Example 5: herbicidal effect by foliage application, plastic box (Table 20, symbol L)). Conditions: 320 g/ha, foliage application after 14-day growth, evaluated three weeks after application.
Assay type: in vivo, windgrass (Apera spica-venti)
Method in brief: as §1
With `C#CCOc1c(C)nn(C)c(=O)c1-c1c(-c2ccccc2OC)sc2cc(OC)ccc12` [3-154] the “herbicidal effect on L: windgrass (evaluation grade 0-5)” value was 0 (Herbicidal rate of 5% or less (almost no effect)).

Same assay, conditions: foliage application, 320 g/ha, three weeks after application
In the case of `COc1ccccc1-c1sc2ccc(F)cc2c1-c1c(O)c(C)nn(Cc2ccccc2)c1=O` [2-438], the “L: windgrass, herbicidal effect grade” value is reported as 0 (Herbicidal rate of 5% or less (almost no effect)).

Each molecule was assayed on redroot pigweed (assay: Test Example 5: herbicidal effect by foliage application, plastic box (Table 20, symbol N)). Conditions: 320 g/ha, foliage application after 14-day growth, evaluated three weeks after application.
Assay type: in vivo, redroot pigweed (Amaranthus retroflexus)
Method in brief: as §1
With `C#CCOc1c(C)nn(C)c(=O)c1-c1c(-c2ccccc2OC)sc2cc(OC)ccc12` [3-154] the “herbicidal effect on N: redroot pigweed (evaluation grade 0-5)” value was 4 (Herbicidal rate of 70% or more and less than 90%).

Same assay, conditions: foliage application, 320 g/ha, three weeks after application
In the case of `COc1ccccc1-c1sc2ccc(F)cc2c1-c1c(O)c(C)nn(Cc2ccccc2)c1=O` [2-438], the “N: redroot pigweed, herbicidal effect grade” value is reported as 3 (Herbicidal rate of 40% or more and less than 70%).

What follows are molecules tested on rice flat sedge (assay: Test Example 3: herbicidal effect by foliage application, Wagner pot (Table 18, symbol E)). Conditions: 320 g/ha.
Assay type: in vivo, rice flat sedge (Cyperus iria)
Method in brief: as §2
In the case of `C#CCOc1c(C)nn(C)c(=O)c1-c1c(-c2ccccc2OC)sc2cc(OC)ccc12` [3-154], the “herbicidal effect on rice flat sedge (E)” value is reported as 3 (Herbicidal rate of 40% or more and less than 70%).

Same assay, conditions: amount of applied herbicide 320 g/ha
`COc1ccccc1-c1sc2ccc(F)cc2c1-c1c(O)c(C)nn(Cc2ccccc2)c1=O` [2-438] was tested, and the “herbicidal effect on E: rice flat sedge” value was 2 (Herbicidal rate of 20% or more and less than 40%).

These molecules were tested on green foxtail (assay: Test Example 5: herbicidal effect by foliage application, plastic box (Table 20, symbol G)). Conditions: 320 g/ha, foliage application after 14-day growth, evaluated three weeks after application.
Assay type: in vivo, green foxtail (Setaria viridis)
Method in brief: as §1
In the case of `C#CCOc1c(C)nn(C)c(=O)c1-c1c(-c2ccccc2OC)sc2cc(OC)ccc12` [3-154], the “herbicidal effect on G: green foxtail (evaluation grade 0-5)” value is reported as 3 (Herbicidal rate of 40% or more and less than 70%).

Same assay, conditions: foliage application, 320 g/ha, three weeks after application
For `COc1ccccc1-c1sc2ccc(F)cc2c1-c1c(O)c(C)nn(Cc2ccccc2)c1=O` [2-438], the “G: green foxtail, herbicidal effect grade” value was 0 (Herbicidal rate of 5% or less (almost no effect)).
